Blank lines part the entries; values can stand above or below the compound they belong to.
Assay: solvent given as SMILES

emission maximum (in ClCCl): 653 nm
SMILES: COC(=O)CCC1=CC(C#Cc2ccsc2)=[N+]2C1=Cc1c(CCC(=O)OC)cc(C#Cc3ccsc3)n1[B-]2(F)F

emission maximum (in ClCCl): 550 nm
SMILES: CN(C)c1ccc(/C=C/c2cnc(-c3ccncc3)o2)cc1

emission maximum (in ClCCl): 585 nm
SMILES: CC[C@H](C)COc1ccc(C2=C3C(C)=C(c4ccc5ccc6cccc7ccc4c5c67)C(C)=[N+]3[B-](F)(F)n3c(C)c(-c4ccc5ccc6cccc7ccc4c5c67)c(C)c32)cc1

emission maximum (in ClCCl): 587 nm
SMILES: COc1ccccc1C1=[N+]2C(=C(c3ccccc3)c3c4c(c(-c5ccccc5OC)n3[B-]2(F)F)C2C=CC4CC2)C2=C1C1C=CC2CC1 (stereo not drawn)

emission maximum (in CO): 717 nm
emission maximum (in CS(C)=O): 727 nm
SMILES: CCC1=C(C)C2=Cc3c4ccccc4c4n3[B-](c3cc[n+](C)cc3)(Oc3ccccc3-4)[N+]2=C1C=Cc1ccc(OC)cc1 (stereo not drawn)

emission maximum (in c1ccccc1): 432 nm
SMILES: CCOC(=O)CSc1nc(-c2ccc(OC)cc2)c(C)c(C#N)c1C#N

emission maximum (in CS(C)=O): 412 nm
SMILES: c1ccc(-c2nc3sc4ccccc4c3s2)cc1

emission maximum (in ClC(Cl)Cl): 545 nm
SMILES: COc1ccc2c(C=C(C#N)C#N)cc3ccc4cc(C=C(C#N)C#N)c5ccc(OC)cc5c4c3c2c1

emission maximum (in ClCCl): 556 nm
emission maximum (in c1ccccc1): 506 nm
SMILES: CCCCN(CCCC)c1ccc(C#Cc2cc(C#Cc3cc(C(F)(F)F)cc(C(F)(F)F)c3)c(C#Cc3cc(C(F)(F)F)cc(C(F)(F)F)c3)cc2C#Cc2ccc(N(CCCC)CCCC)cc2)cc1

emission maximum (in CO): 623 nm
SMILES: CN1C(=CC=Cc2nc3nc4ccccc4nc3s2)C(C)(C)c2ccccc21

emission maximum (in CC#N): 527 nm
emission maximum (in CO): 579 nm
SMILES: COc1ccc(-c2c(-c3ccc(OC)cc3)c3c4c(cccc4c2-c2ccccc2)C(=O)c2ccccc2-3)cc1

emission maximum (in ClC(Cl)Cl): 499 nm
SMILES: CCCCc1ccc(-n2c3c4ccc(C(F)(F)F)cc4nc(-c4ccc(C#N)cc4)c3c3c2c2c(-c4ccc(C#N)cc4)nc4cc(C(F)(F)F)ccc4c2n3-c2ccc(CCCC)cc2)cc1

emission maximum (in ClCCl): 430 nm
SMILES: CC(=O)c1ccc(-c2cc3c(ccc4sccc43)s2)cc1

emission maximum (in C1CCOC1): 447 nm
SMILES: COC(=O)c1ccc(/C=C/C(F)(F)F)c(N)c1

emission maximum (in ClCCl): 566 nm
SMILES: CC1=C(c2ccccc2)C(C)=[N+]2C1=C(c1c(-c3ccccn3)nc3ccccn13)c1c(C)cc(C)n1[B-]2(F)F

emission maximum (in ClC(Cl)Cl): 520.7 nm
SMILES: CC1=CC(C)=[N+]2C1=C(c1ccc(I)cc1)c1c(C)cc(C)n1[B-]21OCCO1

emission maximum (in CC#N): 413 nm
emission maximum (in CO): 444 nm
emission maximum (in ClC(Cl)Cl): 410 nm
emission maximum (in c1ccccc1): 400 nm
SMILES: COc1ccc(N2C(=O)c3ccccc3NC2C(C)(C)C)cc1 (stereo not drawn)

emission maximum (in CS(C)=O): 438 nm
SMILES: COc1cc2sc3nc(-c4ccccc4OC)sc3c2cc1OC

emission maximum (in C1CCCCC1): 411 nm
emission maximum (in CC#N): 421 nm
emission maximum (in CO): 417 nm
emission maximum (in ClCCl): 418 nm
SMILES: COc1c2ccccc2c(OC)c2c1c1c(F)cccc1n2C

emission maximum (in C1CCOC1): 360 nm
SMILES: O=C1c2cc(-c3ccccc3)ccc2-c2ccc(-c3ccccc3)cc21

emission maximum (in ClCCl): 425 nm
SMILES: CCOC(=O)c1c(-c2cc3ccc(OCC=C(C)C)cc3oc2=O)nn(-c2ccccc2)c1C(=O)OCC

emission maximum (in CC#N): 523 nm
emission maximum (in ClCCl): 491 nm
SMILES: Cc1cc(O)c(C(=O)/C=C/c2cccc(O)c2)c(=O)o1

emission maximum (in CC#N): 446 nm
SMILES: COC(=O)c1c(NC(C)(C)C)oc(-c2ccc(-c3ccccc3)cc2)c1C(=O)OC

emission maximum (in ClCCl): 574 nm
SMILES: Clc1ccccc1N1c2c(sc3ccccc23)Sc2sc3ccccc3c21

emission maximum (in C1CCOC1): 476 nm
SMILES: CN(C)c1ccc(C2=C(c3ccccc3)c3oc4ccccc4[n+]3[B-](F)(F)O2)cc1

emission maximum (in C1CCCCC1): 427 nm
emission maximum (in CC#N): 445 nm
emission maximum (in CO): 440 nm
emission maximum (in ClCCl): 443 nm
SMILES: COc1c2ccccc2c(OC)c2c1c1c(C)ccc(OC)c1n2C

emission maximum (in ClCCl): 389 nm
SMILES: COc1cc2c(cc1OC)C1=C[C@H](c3ccccc3)C3(C(C#N)=C(C#N)N1CC2)c1cc(Cl)ccc1-c1ccc(Cl)cc13

emission maximum (in ClCCl): 420 nm
SMILES: CCOC(=O)c1c(-c2c(Cl)c3cc(C)ccc3oc2=O)nn(-c2cccc(Cl)c2)c1C(=O)OCC

emission maximum (in CCCCCC): 346 nm
emission maximum (in CO): 376 nm
emission maximum (in ClCCl): 377 nm
SMILES: C[Si](C)(C)c1ccc2ccc3cccc4ccc1c2c34

The remaining lines, values behind:

SMILES: CCOC(=O)C1=C(C)NC2=C(C(=O)c3ccccc32)C1c1ccc(N(C)C)cc1 (stereo not drawn)
emission maximum (in C1CCOC1): 497 nm
emission maximum (in C1COCCO1): 490 nm
emission maximum (in CC#N): 542 nm
emission maximum (in CCO): 559 nm
emission maximum (in CN(C)C=O): 540 nm
emission maximum (in CO): 561 nm
emission maximum (in CS(C)=O): 548 nm
emission maximum (in ClC(Cl)(Cl)Cl): 475 nm
emission maximum (in ClC(Cl)Cl): 532 nm
emission maximum (in ClCCl): 530 nm

SMILES: CCCCCCCCCCCCCCOc1ccc(C#Cc2cc3nc4c(OCCCCCCCCCCCC)cc5c6cc(OCCCCCCCCCCCC)c(OCCCCCCCCCCCC)cc6c6cc(OCCCCCCCCCCCC)c(OCCCCCCCCCCCC)cc6c5c4nc3cc2C#Cc2ccc(OCCCCCCCCCCCCCC)cc2)cc1
emission maximum (in ClC(Cl)Cl): 663 nm

SMILES: [NH-]c1cc(N)cc(-c2nc3ccccc3s2)c1
emission maximum (in O): 484 nm

SMILES: F[B-]1(F)n2cccc2C(c2c3ccccc3cc3ccccc23)=C2C=CC=[N+]21
emission maximum (in CC#N): 519 nm
emission maximum (in CCCCCC): 521 nm
emission maximum (in CCO): 520 nm
emission maximum (in CN(C)C=O): 524 nm
emission maximum (in Cc1ccccc1): 525 nm
emission maximum (in ClCCl): 520 nm

SMILES: c1ccc(-c2nc(-c3ccccc3)nc(-c3ccc(N4c5ccccc5C5(c6ccccc64)c4ccccc4C4(c6ccccc6-c6ccccc64)c4ccccc45)cc3)n2)cc1
emission maximum (in Cc1ccccc1): 475.42 nm

SMILES: Cc1cccc(C)c1/C=C/c1nc(N2CCOCC2)c2c([n+]1[O-])CCCC2
emission maximum (in ClCCl): 536 nm

SMILES: N#CC1=c2cc3c4c(c2Oc2c1cc1c5c2CCCN5CCC1)CCC[N+]=4CCC3
emission maximum (in CCO): 700 nm

SMILES: COc1cc(OC)cc(C2=[O+][B-](F)(F)OC(c3ccc4cc(OC)ccc4c3)=C2)c1
emission maximum (in CC#N): 550.5 nm
emission maximum (in CC(C)=O): 533.32 nm
emission maximum (in CCCCCC): 430.95 nm
emission maximum (in Cc1ccccc1): 475.78 nm
emission maximum (in ClCCl): 520 nm

SMILES: N#Cc1c(-n2c3ccccc3c3ccccc32)cccc1-n1c2ccccc2c2ccccc21
emission maximum (in Cc1ccccc1): 403 nm
emission maximum (in O=P(c1ccccc1)(c1ccccc1)c1ccccc1Oc1ccccc1P(=O)(c1ccccc1)c1ccccc1): 415 nm

SMILES: C#CC1CN2CCC1CC2[C@@H](O)c1ccnc2ccc(OC)cc12 (stereo partly drawn)
emission maximum (in C1CCOC1): 361 nm
emission maximum (in CC#N): 358 nm
emission maximum (in CCCC#N): 359 nm
emission maximum (in Cc1ccccc1): 360 nm
emission maximum (in ClCCl): 363 nm

SMILES: C(=C\c1cc(-c2ccc3ccccc3c2)c(/C=C/c2ccc(N(c3ccccc3)c3ccccc3)cc2)cc1-c1ccc2ccccc2c1)/c1ccc(N(c2ccccc2)c2ccccc2)cc1
emission maximum (in ClCCl): 489 nm

SMILES: CCN(CC)c1ccc(/C=C2\CC/C(=C\c3ccc(N(c4ccc(/C=C5\CC/C(=C\c6ccc(N(CC)CC)cc6)C5=C(C#N)C#N)cc4)c4ccc(/C=C5\CC/C(=C\c6ccc(N(CC)CC)cc6)C5=C(C#N)C#N)cc4)cc3)C2=C(C#N)C#N)cc1
emission maximum (in CN(C)C=O): 720 nm

SMILES: N#Cc1c(N2CCCCC2)cc(-c2ccc3ccc4cccc5ccc2c3c45)c2c1-c1ccccc1C2
emission maximum (in C1CCOC1): 460 nm

SMILES: CSC1=C2C=C(c3cc4n(c3)[B-](F)(F)[N+]3=CC=CC3=C4c3c(C)cc(C)cc3C)C(C)=[N+]2[B-](F)(F)n2c(C)ccc21
emission maximum (in C1CCCCC1): 652 nm
emission maximum (in CC#N): 740 nm
emission maximum (in CC(C)=O): 694 nm
emission maximum (in CCOC(C)=O): 664 nm
emission maximum (in Cc1ccccc1): 663 nm

SMILES: c1ccc(-c2cc(-c3ccccc3)cc(-c3ccccc3)c2)cc1
emission maximum (in C1COCCO1): 354 nm

SMILES: CN(C)c1ccc(/C=C2\CC/C(=C\c3ccc(N(C)C)cc3)C2=O)cc1
emission maximum (in C1CCOC1): 529 nm
emission maximum (in C1COCCO1): 493 nm
emission maximum (in CC#N): 587 nm
emission maximum (in CC(C)=O): 565 nm
emission maximum (in CC(C)O): 590 nm
emission maximum (in CCO): 613 nm
emission maximum (in CCOC(C)=O): 528 nm
emission maximum (in CN(C)C=O): 575 nm
emission maximum (in CO): 635 nm
emission maximum (in CS(C)=O): 588 nm
emission maximum (in Cc1ccccc1): 482 nm
emission maximum (in ClC(Cl)(Cl)Cl): 478 nm
emission maximum (in ClC(Cl)Cl): 543 nm
emission maximum (in ClCCl): 547 nm
emission maximum (in S=C=S): 497 nm

SMILES: CC(=O)c1c2c(cc3c(N(C)C)cccc13)CCC2
emission maximum (in C1CCCCC1): 480 nm
emission maximum (in C1CCOC1): 543 nm
emission maximum (in C1COCCO1): 534 nm
emission maximum (in CC#N): 590 nm
emission maximum (in CCO): 634 nm
emission maximum (in CS(C)=O): 598 nm
emission maximum (in Cc1ccccc1): 520 nm
emission maximum (in ClC(Cl)Cl): 562 nm
emission maximum (in ClCCl): 562 nm

SMILES: Clc1ccc2cc3cccc[n+]3cc2c1
emission maximum (in O): 408 nm

SMILES: CCCCCCCCCCCC#CC#CCCCCCCCCCN1C(=O)c2ccc3c4ccc5c6c(ccc(c7ccc(c2c37)C1=O)c64)C(=O)N(CCCCCCCCCC#CC#CCCCCCCCCCCCC)C5=O
emission maximum (in ClC(Cl)Cl): 535 nm

SMILES: O=P(c1c2ccccc2cc2ccccc12)(c1c2ccccc2cc2ccccc12)c1c2ccccc2cc2ccccc12
emission maximum (in C1CCOC1): 452 nm

SMILES: CCn1c(-c2ccc(-c3ccc4ccc5cccc6ccc3c4c56)cc2)c(-c2ccc3ccccc3c2)c(-c2ccc3ccccc3c2)c1-c1ccc(-c2ccc3ccc4cccc5ccc2c3c45)cc1
emission maximum (in CCOC(C)=O): 460 nm

SMILES: O=C1OC(=O)[C@H]2[C@@H]1[C@@H]1C[C@H]2c2c1c(-c1ccccc1)c1ccccc1c2-c1ccccc1
emission maximum (in ClC(Cl)Cl): 362 nm

SMILES: COc1ccc(-n2c(-c3ccc(-c4cncc5ccccc45)cc3)nc3c4ccccc4c4ccccc4c32)cc1
emission maximum (in C1CCOC1): 429 nm

SMILES: COc1ccc2c(c1)[nH]c1c3[nH]c4cc(OC)ccc4c3c3nsnc3c21
emission maximum (in CN(C)C=O): 544 nm
emission maximum (in Cc1ccccc1): 501 nm
emission maximum (in ClCCl): 540 nm

SMILES: CC(C)(C)c1ccc2c(c1)-c1c3c(c4c5c1-c1cc(C(C)(C)C)ccc1OB5Oc1ccc(C(C)(C)C)cc1-4)-c1cc(C(C)(C)C)ccc1OB3O2
emission maximum (in ClCCl): 436 nm

SMILES: Cc1cc(C)c(B(c2c(C)cc(C)cc2C)c2c(C)cc(N3c4ccccc4Oc4ccccc43)cc2C)c(C)c1
emission maximum (in Cc1ccccc1): 509 nm
emission maximum (in c1ccc2c(c1)c1ccccc1n2-c1ccc(-c2ccc(-n3c4ccccc4c4ccccc43)cc2)cc1): 504 nm

SMILES: N#Cc1cc(C#N)c(-c2cc(-n3c4ccccc4c4ccccc43)cc(-n3c4ccccc4c4ccccc43)c2)cc1-c1cc(-n2c3ccccc3c3ccccc32)cc(-n2c3ccccc3c3ccccc32)c1
emission maximum (in Cc1ccccc1): 372 nm

From the Deep4Chem optical property database
